Results published in patent US12427142B2, “Combination comprising alpelisib and 6-(2,4-dichlorophenyl)-5-[4-[(3S)-1-(3-fluoropropyl)pyrrolidin-3-yl[oxyphenyl]-8,9-dihydro-7H-benzo[7]annulene-2-carboxylic acid” (Sanofi, priority 2020, dated 2025).
Where two headings read alike, the source gives them in different places.

Assays:
[1] = system: MCF7-Y537S human breast cancer cell line xenograft; assay type: in vivo; details: experiment 2, compound (1) 10 mg/kg BID, alpelisib 25 mg/kg QD; for Tumor volume changes from baseline, Median: PO; for Median % of regressions on day 28 / ΔT/ΔC in % at day 28 / Regressions Complete / Regressions Partial: PO days 0 to 28; for Regressions Complete / Regressions Partial: animals/group; for Anti-tumor effect on tumor growth (in words) / Biological Interpretation: day 28
[2] = system: MCF7-Y537S human breast cancer cell line xenograft; details: experiment 1, compound (1) 20 mg/kg BID, alpelisib 25 mg/kg QD; for Tumor volume changes from baseline, Median: PO; for Median % of regressions on day 22 / ΔT/ΔC in % at day 22 / Regressions Complete / Regressions Partial: PO days 0 to 22; for Regressions Complete / Regressions Partial: animals/group; for Anti-tumor effect on tumor growth (in words) / Biological Interpretation: day 22
Procedure: In the present study, the anti-tumor efficacy of 6-(2,4-dichlorophenyl)-5-[4-[(3S)-1-(3-fluoropropyl)pyrrolidin-3-yl]oxyphenyl]-8,9-dihydro-7H-benzo[7]annulene-2-carboxylic acid (“compound (1)”), combined with alpha-specific phosphoinositide 3-kinase (PI3K) inhibitor alpelisib, was investigated after 22 day treatment against a subcutaneous MCF7-Y537S human breast cancer cell line xenograft in female nude mice.
The treated groups included compound (1) at 20 mg/kg alone, alpelisib at 25 mg/kg alone, and the combination of compound (1) and alpelisib at the same dose and regime.
Compound (1) was orally dosed twice a day (BID) and alpelisib was orally dosed once a day (QD) for 22 days. Anti-tumor efficacy was evaluated by tumor volume measurement.
Female BALB/c nude mice were obtained from Shanghai Sino-British SIPPR/BK Laboratory Animal Co., LTD (Shanghai, CHINA). Animals were allowed to acclimate for at least four days before the study enrollment. Mice were 6 to 8 weeks old and weighed between 18 and 24 grams at the beginning of the treatments. These animals were housed under conditions outlined in the guidelines approved by the Institutional Animal Care and Use Committee (IACUC) of WuXi AppTec following the guidance of the Association for Assessment and Accreditation of Laboratory Animal Care (AAALAC).
Parental MCF7 cells were obtained from the American Type Culture Collection (ATCC® HTB-22™). MCF7-Y537S (ESR1) cell line was MCF7 cells expressing the ER.Y537S variant that was generated by Sanofi Biology Discovery Group. Y537S mutation was introduced in ESR1 construct (GenBank NM_000125.3) by site directed mutagenesis (Toy W. et al., Cancer Discovery, 2017, 7, 277-287). The construct was transfected in MCF7 cells which were selected for their growth in absence of estradiol. MCF-Y537S is an ESR1 mutation that confers estrogen-independent activity to ERα (Estrogen Receptor alpha) and contributes to endocrine resistant disease (Robinson D. R. et al., Nat Genet., 2013, 45 (12), 1446-1451). The cells were grown in Eagle's Minimum Essential Medium (EMEM) supplemented with 10% fetal bovine serum (FBS), human Insulin, in 5% CO2 at 37° C. The cells were harvested in 0.25% Trypsin EDTA and washed by Phosphate Buffered Saline (PBS) and re-suspended in PBS with 75% Matrigel. The cells (20×10^6 cells/per mouse) were subcutaneously (SC) implanted into the right flank of female nude mice.
When the MCF7-Y537S tumors were established, the tumors were reserved as tumor stocks for fragment implantation. The tumors were serially propagated through fragment tissue transplantation subcutaneously. The fragment tumor tissues were subcutaneously implanted into the right flank of female nude mice. 28 mice were assigned in this experiment.
Alpelisib (commercially available, marketed under the tradename PIQRAY®) was formulated in 100% of HPMC (hydroxypropyl-methylcellulose)/TWEEN80 0.5/0.1% in water. Compound (1) was prepared in 5% Solutol HS15 (purchased from Sigma) at pH 3.0.
Dose volume for compound (1) and alpelisib for oral administration: 10 ml/kg by oral gavage.
Doses: compound (1) at 20 mg/kg and alpelisib at 25 mg/kg in the above volume.
The animals required for experiment (plus extra) were pooled and implanted with MCF7-Y537S tumor fragment tissues. […] Treatments of compound (1) and alpelisib were initiated on day 0. Compound (1) was orally administered at 20 mg/kg BID (8 hours apart) and alpelisib was orally administered at 25 mg/kg QD, for 22 days. Animal body weight was assessed daily.
The dosages are expressed in mg/kg and based on daily body weight per animal. Vehicle treated animals were used as controls. Mice were checked daily for adverse clinical reactions. Individual mice were weighed daily until the end of the experiment.

SMILES | Tumor volume changes from baseline, Median ([1]; Day 3) [mm^3] | Tumor volume changes from baseline, Median ([1]; Day 7) [mm^3] | Tumor volume changes from baseline, Median ([1]; Day 10) [mm^3] | Tumor volume changes from baseline, Median ([1]; Day 14) [mm^3] | Tumor volume changes from baseline, Median ([1]; Day 17) [mm^3] | Tumor volume changes from baseline, Median ([1]; Day 21) [mm^3] | Tumor volume changes from baseline, Median ([1]; Day 24) [mm^3] | Tumor volume changes from baseline, Median ([1]; Day 28) [mm^3] | Median % of regressions on day 28 [1] [%] | ΔT/ΔC in % at day 28 [1] [%] | Regressions Complete [1] | Regressions Partial [1] | Anti-tumor effect on tumor growth (in words) [1] | Biological Interpretation [1] | Tumor volume changes from baseline, Median ([2]; Day 4) [mm^3] | Tumor volume changes from baseline, Median ([2]; Day 8) [mm^3] | Tumor volume changes from baseline, Median ([2]; Day 11) [mm^3] | Tumor volume changes from baseline, Median ([2]; Day 15) [mm^3] | Tumor volume changes from baseline, Median ([2]; Day 18) [mm^3] | Tumor volume changes from baseline, Median ([2]; Day 22) [mm^3] | further results
O=C(O)c1ccc2c(c1)CCCC(c1ccc(Cl)cc1Cl)=C2c1ccc(O[C@H]2CCN(CCCF)C2)cc1 [Compound (1), 6-(2,4-dichlorophenyl)-5-[4-[(3S)-1-(3-fluoropropyl)pyrrolidin-3-yl]oxyphenyl]-8,9-dihydro-7H-benzo[7]annulene-2-carboxylic acid] | 9.0 | 36.0 | 48.0 | 62.5 | 92.0 | 167.5 | 189.5 | 166.5 | 0 | 37 | 0/8 | 0/8 | statistically significant anti-tumor effect | active | 43.0 | 121.0 | 214.0 | 360.0 | 392.0 | 501.0 | Unscheduled death (Day of death) ([1]; PO for 28 days, deaths/animals): 0/8; Median % of regressions on day 22 [2]: 0%; ΔT/ΔC in % at day 22 [2]: 47%; Regressions Complete [2]: 0/7; Regressions Partial [2]: 0/7; Unscheduled death (Day of death) ([2]; PO for 22 days, deaths/animals): 0/7; Anti-tumor effect on tumor growth (in words) [2]: no statistically significant anti-tumor effect; Biological Interpretation [2]: Inactive
Cc1nc(NC(=O)N2CCC[C@H]2C(N)=O)sc1-c1ccnc(C(C)(C)C(F)(F)F)c1 [Alpelisib] | 7.0 | −9.0 | −17.0 | 44.0 | 121.5 | 211.0 | 245.5 | 299.5 | 0 | 66 | 0/8 | 0/8 | statistically significant anti-tumor efficacy | inactive | 68.0 | 102.0 | 163.0 | 262.0 | 315.0 | 491.0 | Body weight loss ([1]; 28 days): no significant body weight loss; Tolerability ([1]; 28 days): well tolerated; Median % of regressions on day 22 [2]: 0%; ΔT/ΔC in % at day 22 [2]: 46%; Regressions Complete [2]: 0/7; Regressions Partial [2]: 0/7; Anti-tumor effect on tumor growth (in words) [2]: did not induce statistically significant anti-tumor efficacy; Biological Interpretation [2]: Inactive
